# Assay results published in patent publication US9499811B2, “Ligation enhancement” (New England Biolabs, Inc., priority 2011, dated 2016).
# Tests used:
# [1] = molecular target: T1, T4 DNA ligase (Enterobacteria phage T4, UniProt P00970); assay: Cloning of inserts with single-base 3'A overhangs into Qiagen cloning vector, ligation and subsequent transformation; format: biochemical; design: purchased NEB (New England Biolabs), Ipswich, Mass. #M0202; settings: 6% 1,2-PrD
# T1 sequence (P00970 1-487): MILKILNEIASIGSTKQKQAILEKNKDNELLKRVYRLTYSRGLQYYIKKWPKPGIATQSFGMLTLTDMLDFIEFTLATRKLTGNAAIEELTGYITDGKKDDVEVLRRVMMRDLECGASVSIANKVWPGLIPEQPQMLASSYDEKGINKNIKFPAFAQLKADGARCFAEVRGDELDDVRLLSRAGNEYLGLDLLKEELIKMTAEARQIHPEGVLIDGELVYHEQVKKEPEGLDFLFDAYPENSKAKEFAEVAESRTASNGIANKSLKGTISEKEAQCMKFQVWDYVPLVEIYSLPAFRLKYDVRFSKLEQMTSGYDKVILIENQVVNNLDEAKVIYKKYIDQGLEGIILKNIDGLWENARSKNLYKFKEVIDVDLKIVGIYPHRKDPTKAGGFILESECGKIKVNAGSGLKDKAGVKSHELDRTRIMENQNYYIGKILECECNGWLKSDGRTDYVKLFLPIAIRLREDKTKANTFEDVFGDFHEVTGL
# Procedure: This test used a commercially available cloning vector from Qiagen, Valencia, Calif. (#231124) specifically designed to clone DNA fragments with single-base 3′A overhangs.
# (§1) The reaction mixtures contained DNA at 50-100 ng and 1,2-PrD at different concentrations. 1 μl of regular concentration (NEB, Ipswich, Mass., #M0202; 400 units) or 1 μl of high concentration T4 DNA ligase (NEB, Ipswich, Mass., #M0202; 2000 units) was then added to a final volume of 21 μl in 1×T4 DNA Ligase Buffer (NEB, Ipwich, Mass., #B0202) or 1× Quick Ligase™ Buffer (NEB, Ipswich, Mass., #B2200).
# (§2) Ligation reactions were incubated for 10 min at room temperature (25° C.) unless otherwise stated, then placed on ice for 2 min. In some experiments the ligase was heat-killed by incubation at 65° C. for 20 min. The ligation reactions were analyzed by 1% agarose gel electrophoresis to identify DNA species and determine the efficiency of […].
# (§3) A volume of 2 μl from each ligation reaction was incubated with 50 μl of chemically competent (NEB, Ipswich, Mass., #C2987I) or electrocompetent (NEB, Ipswich, Mass., #C2989K) DH5 alpha E. coli cells.
# (§4) For chemically competent cell transformations, the cell-DNA mixture was incubated on ice for 30 min, heat-shocked at 42° C. for 30 sec, then returned to ice for 5 min. A volume of 950 μl SOC medium (2% vegetable peptone or Tryptone, 0.5% yeast extract, 10 mM NaCl, 2.5 mM KCl, 10 mM MgCl2, 10 mM MgSO4 and 20 mM glucose) was added to the cell-DNA mixture, followed by a one hr 37° C. outgrowth period with agitation. A volume of 25-50 μl of appropriately diluted cells in SOC was spread onto Rich Agar plates (composition per liter: 10 g soy peptone, 5 g yeast extract, 10 g NaCl, 1 g MgCl2-6H2O, 1 g dextrose, 15 grams agar) supplemented with 100 μg/ml ampicillin. Plates were inverted and incubated for 16 hrs at 37° C., followed by quantification of total colony numbers.
# For electrocompetent cell transformation protocols, the cell-DNA mixture was subjected to electroporation, immediately followed by the addition of 950 μl of pre-warmed 37° C. SOC medium, followed by a one hour 37° C. outgrowth period with agitation. Dilution, plating, incubation and colony quantification were performed as described in Example 1A above.
# [2] = molecular target: T1, T4 DNA ligase; format: biochemical; design: purchased NEB (New England Biolabs), Ipswich, Mass. #M0202; settings: enhancer at 12%; no addition = 1-fold; single-base overhangs
# Procedure: All were tested side-by-side using two ligation test systems which were: (a) cloning of a 500 bp amplicon made by Taq DNA polymerase into a T-tailed vector; and (b) recircularization of an AhdI-linearized plasmid. Both ligation test systems used DNA with single-base overhangs.
# as §1
# A standard assay uses 100 ng DNA, 1 μl of T4 DNA ligase, 21 μl 1×T4 DNA ligase buffer and varying amounts of enhancer.
# as §2, §3, §4
# [3] = insert 68mer cassette featuring No 5' PO4, 3' A overhang
# [4] = insert 513 pb human genomic amplicon using Taq DNA polymerase
smiles,measurement,setting,value
"CC(O)CO (stereo not drawn) [1,2-PrD, 1,2-propanediol]",Cloning Enhancement (chemical transformation),[1]; [3],14-fold
same,Cloning Enhancement (electroporation),[1]; [3],2-fold
same,Cloning Enhancement (chemical transformation),[1]; [4],At least 72-fold
same,Cloning Enhancement (electroporation),[1]; [4],11-fold
same,Colonies (chemical transformation),"[1]; insert 513 pb human genomic amplicon, 0 colonies without enhancer",72 colonies)
same,Recircularization Enhancement,[2],11-fold
